In ChEMBL document CHEMBL1141382, “Studies leading to potent, dual inhibitors of Bcl-2 and Bcl-xL” (J Med Chem, 2007):

Assays:
Bcl-2-like protein 1 [1] = target: T1, Bcl-2-like protein 1 (Homo sapiens, UniProt Q07817); experiment: Displacement of Bad-derived peptide from Bcl-xL by fluorescence polarization assay
[2] = target: Apoptosis regulator Bcl-2 (Homo sapiens, UniProt P10415); experiment: Displacement of Bax-derived peptide from Bcl2 by fluorescence polarization assay
Bcl-2-like protein 1 [3] = target: T1, Bcl-2-like protein 1; experiment: Displacement of Bad-derived peptide from Bcl-xL by FPA in presence of 10% human serum
FL5.12 = experiment: Reversal of cytokine withdrawal protection in IL3 dependent Bcl-xL overexpressing mouse FL5.12 cells in presence of 3% FBS; type: functional

T1 sequence (Q07817 whole entry): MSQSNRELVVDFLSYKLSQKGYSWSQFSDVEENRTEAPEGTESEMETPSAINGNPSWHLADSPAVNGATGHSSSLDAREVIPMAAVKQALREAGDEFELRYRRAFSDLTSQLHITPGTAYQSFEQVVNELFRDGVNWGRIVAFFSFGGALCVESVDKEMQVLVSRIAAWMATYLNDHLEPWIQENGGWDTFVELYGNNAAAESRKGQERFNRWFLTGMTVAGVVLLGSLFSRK
Sequence of Apoptosis regulator Bcl-2 (P10415 whole entry): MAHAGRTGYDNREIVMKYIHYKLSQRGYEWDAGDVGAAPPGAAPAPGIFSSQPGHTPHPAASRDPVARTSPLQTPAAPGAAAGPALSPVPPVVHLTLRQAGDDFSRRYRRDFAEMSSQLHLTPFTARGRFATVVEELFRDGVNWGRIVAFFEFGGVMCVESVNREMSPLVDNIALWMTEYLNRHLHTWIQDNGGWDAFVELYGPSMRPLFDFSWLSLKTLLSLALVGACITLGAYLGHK

Structure (SMILES) | Ki (Bcl-2-like protein 1 [1]) [nM] | Ki [2] [nM] | IC50 (Bcl-2-like protein 1 [3]) [nM] | EC50 (FL5.12) [nM]
CN(C)CC[C@H](CSc1ccccc1)Nc1ccc(S(=O)(=O)NC(=O)c2ccc(N3CCC(=Cc4cccnc4)CC3)cc2)cc1[N+](=O)[O-] | 1.3 | 68 | 2800 | 
CN(C)CC[C@H](CSc1ccccc1)Nc1ccc(S(=O)(=O)NC(=O)c2ccc(N3CCC(=Cc4ccccc4C(F)(F)F)CC3)cc2)cc1[N+](=O)[O-] | < 0.5 | 2 | 300 | 
COC1(Cc2ccc(-c3ccccc3)cc2)CCN(c2ccc(C(=O)NS(=O)(=O)c3ccc(N[C@H](CCN(C)C)CSc4ccccc4)c([N+](=O)[O-])c3)cc2)CC1 | 0.9 | < 1 | 160 | 
COc1ccccc1C=C1CCN(c2ccc(C(=O)NS(=O)(=O)c3ccc(N[C@H](CCN(C)C)CSc4ccccc4)c([N+](=O)[O-])c3)cc2)CC1 | 0.6 | 2 | 760 | 
CC1OC2(CCN(c3ccc(C(=O)NS(=O)(=O)c4ccc(N[C@H](CCN(C)C)CSc5ccccc5)c([N+](=O)[O-])c4)cc3)CC2)N(Cc2ccccc2)C1=O (some centres not stated) | 3.7 | 9.6 |  | 
COC1(Cc2ccccc2-c2ccccc2)CCN(c2ccc(C(=O)NS(=O)(=O)c3ccc(N[C@H](CCN(C)C)CSc4ccccc4)c([N+](=O)[O-])c3)cc2)CC1 | < 0.5 | < 1 | < 60 | 
CN(C)CC[C@H](CSc1ccccc1)Nc1ccc(S(=O)(=O)NC(=O)c2ccc(N3CCN(Cc4ccccc4-c4ccc(-c5ccccc5)cc4)CC3)cc2)cc1[N+](=O)[O-] | 1 | < 1 | 100 | 120
CN(C)CC[C@H](CSc1ccccc1)Nc1ccc(S(=O)(=O)NC(=O)c2ccc(N3CCC(=Cc4ccccc4Cl)CC3)cc2)cc1[N+](=O)[O-] | < 0.5 | 0.7 | 700 | 
COC1(Cc2ccccc2Br)CCN(c2ccc(C(=O)NS(=O)(=O)c3ccc(N[C@H](CCN(C)C)CSc4ccccc4)c([N+](=O)[O-])c3)cc2)CC1 | < 0.5 | 1.5 | < 60 | 
CN(C)CC[C@H](CSc1ccccc1)Nc1ccc(S(=O)(=O)NC(=O)c2ccc(N3CCC(=Cc4ccccc4C#N)CC3)cc2)cc1[N+](=O)[O-] | < 0.5 | 13 | 520 | 
COc1ccccc1CC1(OC)CCN(c2ccc(C(=O)NS(=O)(=O)c3ccc(N[C@H](CCN(C)C)CSc4ccccc4)c([N+](=O)[O-])c3)cc2)CC1 | 1.1 | 1.6 | 75 | 
COC1(Cc2ccccc2Cl)CCN(c2ccc(C(=O)NS(=O)(=O)c3ccc(N[C@H](CCN(C)C)CSc4ccccc4)c([N+](=O)[O-])c3)cc2)CC1 | < 0.5 | < 1 | 62 | 
CN(C)CC[C@H](CSc1ccccc1)Nc1ccc(S(=O)(=O)NC(=O)c2ccc(N3CCC4(CC3)CC(c3ccccc3)=NO4)cc2)cc1[N+](=O)[O-] | 4.4 | 35.2 |  | 
COC1(Cc2cccc(Cl)c2)CCN(c2ccc(C(=O)NS(=O)(=O)c3ccc(N[C@H](CCN(C)C)CSc4ccccc4)c([N+](=O)[O-])c3)cc2)CC1 | < 0.5 | 1.8 | 170 | 
CN(C)CC[C@H](CSc1ccccc1)Nc1ccc(S(=O)(=O)NC(=O)c2ccc(N3CCN(Cc4ccccc4-c4ccccc4)CC3)cc2)cc1[N+](=O)[O-] | < 0.5 | < 1 | < 60 | 1200
CN(C)CC[C@H](CSc1ccccc1)Nc1ccc(S(=O)(=O)NC(=O)c2ccc(N3CCN(Cc4ccccc4-c4cccc(Cl)c4)CC3)cc2)cc1[N+](=O)[O-] | < 0.5 | 16.9 | 140 | 2800
COc1ccccc1CN1CCN(c2ccc(C(=O)NS(=O)(=O)c3ccc(N[C@H](CCN(C)C)CSc4ccccc4)c([N+](=O)[O-])c3)cc2)CC1 | < 0.5 | 3.2 | 80 | 
CN(C)CC[C@H](CSc1ccccc1)Nc1ccc(S(=O)(=O)NC(=O)c2ccc(N3CCC(=Cc4ccc(F)cc4)CC3)cc2)cc1[N+](=O)[O-] | < 0.5 | 3.4 | 520 | 
COC1(Cc2ccc(Cl)cc2)CCN(c2ccc(C(=O)NS(=O)(=O)c3ccc(N[C@H](CCN(C)C)CSc4ccccc4)c([N+](=O)[O-])c3)cc2)CC1 | 0.9 | 2.7 | 200 | 
COC1(Cc2ccccc2)CCN(c2ccc(C(=O)NS(=O)(=O)c3ccc(N[C@H](CCN(C)C)CSc4ccccc4)c([N+](=O)[O-])c3)cc2)CC1 | 1.8 | 8.1 | 150 | 
COC1(CC2CCCCC2)CCN(c2ccc(C(=O)NS(=O)(=O)c3ccc(N[C@H](CCN(C)C)CSc4ccccc4)c([N+](=O)[O-])c3)cc2)CC1 | 0.8 | 6.6 | 300 | 
COC1(CC(C)C)CCN(c2ccc(C(=O)NS(=O)(=O)c3ccc(N[C@H](CCN(C)C)CSc4ccccc4)c([N+](=O)[O-])c3)cc2)CC1 | 6.1 | 56 | 360 | 
CN(C)CC[C@H](CSc1ccccc1)Nc1ccc(S(=O)(=O)NC(=O)c2ccc(N3CCN(Cc4ccccc4NC4CCCCC4)CC3)cc2)cc1[N+](=O)[O-] | 0.6 | 3.5 | 370 | 

Structure (SMILES) | Ki (Bcl-2-like protein 1 [1]) [nM] | Ki [2] [nM] | IC50 (Bcl-2-like protein 1 [3]) [nM] | EC50 (FL5.12) [nM]
CN(C)CC[C@H](CSc1ccccc1)Nc1ccc(S(=O)(=O)NC(=O)c2ccc(N3CCN(Cc4ccccc4-c4ccc(Cl)cc4)CC3)cc2)cc1[N+](=O)[O-] [ABT 737] |  |  |  | 220
Cc1ccc(S(=O)(=O)N2CCN(c3ccc(C(=O)NS(=O)(=O)c4ccc(N[C@H](CCN(C)C)CSc5ccccc5)c([N+](=O)[O-])c4)cc3)CC2)cc1 | 4 | 6.1 |  | 
CN(C)CC[C@H](CSc1ccccc1)Nc1ccc(S(=O)(=O)NC(=O)c2ccc(N3CCC(=Cc4ccc(Cl)cc4)CC3)cc2)cc1[N+](=O)[O-] | < 0.5 | 2.1 | 510 | 
CN(C)CC[C@H](CSc1ccccc1)Nc1ccc(S(=O)(=O)NC(=O)c2ccc(N3CCN(Cc4ccccc4N4CCOCC4)CC3)cc2)cc1[N+](=O)[O-] | < 0.5 | < 1 | < 60 | 
CN(C)CC[C@H](CSc1ccccc1)Nc1ccc(S(=O)(=O)NC(=O)c2ccc(N3CCC4(CC3)CC(Cc3ccccc3)=NO4)cc2)cc1[N+](=O)[O-] | 1.7 | 6.5 |  | 
CSc1ccccc1CN1CCN(c2ccc(C(=O)NS(=O)(=O)c3ccc(N[C@H](CCN(C)C)CSc4ccccc4)c([N+](=O)[O-])c3)cc2)CC1 | < 0.5 | < 1 | < 60 | 
CN(C)CC[C@H](CSc1ccccc1)Nc1ccc(S(=O)(=O)NC(=O)c2ccc(N3CCC(=Cc4ccccn4)CC3)cc2)cc1[N+](=O)[O-] | 3.6 | 46 | 700 | 
CC1(C)CCN(c2ccc(C(=O)NS(=O)(=O)c3ccc(NC(C)(C)CSc4ccccc4)c([N+](=O)[O-])c3)cc2)CC1 | 0.8 |  | 360 | 
CN(C)CC[C@H](CSc1ccccc1)Nc1ccc(S(=O)(=O)NC(=O)c2ccc(N3CCN(Cc4ccccc4-c4cccnc4)CC3)cc2)cc1[N+](=O)[O-] | < 0.5 | 1 | 81 | 
Cc1ccccc1CN1CCN(c2ccc(C(=O)NS(=O)(=O)c3ccc(N[C@H](CCN(C)C)CSc4ccccc4)c([N+](=O)[O-])c3)cc2)CC1 | 3 | 4.5 | 140 | 
CN(C)CC[C@H](CSc1ccccc1)Nc1ccc(S(=O)(=O)NC(=O)c2ccc(N3CCN(C(=O)Nc4ccccc4)CC3)cc2)cc1[N+](=O)[O-] | 2.5 | 300 |  | 
CN(C)CC[C@H](CSc1ccccc1)Nc1ccc(S(=O)(=O)NC(=O)c2ccc(N3CCN(Cc4ccccc4C(F)(F)F)CC3)cc2)cc1[N+](=O)[O-] | < 0.5 | < 1 | 85 | 
CN(C)CC[C@H](CSc1ccccc1)Nc1ccc(S(=O)(=O)NC(=O)c2ccc(N3CCC(=Cc4ccccc4F)CC3)cc2)cc1[N+](=O)[O-] | < 0.5 | 2.5 | 750 | 
COC1(Cc2ccccc2C)CCN(c2ccc(C(=O)NS(=O)(=O)c3ccc(N[C@H](CCN(C)C)CSc4ccccc4)c([N+](=O)[O-])c3)cc2)CC1 | < 0.5 | 1.4 | 71 | 
COC1(CC(C)(C)C)CCN(c2ccc(C(=O)NS(=O)(=O)c3ccc(N[C@H](CCN(C)C)CSc4ccccc4)c([N+](=O)[O-])c3)cc2)CC1 | 4.6 | 16 | 440 | 
CN(C)CC[C@H](CSc1ccccc1)Nc1ccc(S(=O)(=O)NC(=O)c2ccc(N3CCC(=Cc4ccccc4-c4ccccc4)CC3)cc2)cc1[N+](=O)[O-] | < 0.5 | < 1 | 83 | 
CN(C)CC[C@H](CSc1ccccc1)Nc1ccc(S(=O)(=O)NC(=O)c2ccc(N3CCC(=Cc4ccc(C(F)(F)F)cc4)CC3)cc2)cc1[N+](=O)[O-] | 1.4 | 9.4 | 1300 | 
COC1(Cc2ccccc2F)CCN(c2ccc(C(=O)NS(=O)(=O)c3ccc(N[C@H](CCN(C)C)CSc4ccccc4)c([N+](=O)[O-])c3)cc2)CC1 | 0.9 | 3.1 | 79 | 
CN(C)CC[C@H](CSc1ccccc1)Nc1ccc(S(=O)(=O)NC(=O)c2ccc(N3CCN(Cc4ccccc4S(C)(=O)=O)CC3)cc2)cc1[N+](=O)[O-] | 0.9 | 4.6 | 170 | 
CN(C)CC[C@H](CSc1ccccc1)Nc1ccc(S(=O)(=O)NC(=O)c2ccc(N3CCN(Cc4ccccc4C4CCCCC4)CC3)cc2)cc1[N+](=O)[O-] | < 0.5 | < 1 | 61 | 
CN(C)CC[C@H](CSc1ccccc1)Nc1ccc(S(=O)(=O)NC(=O)c2ccc(N3CCN(C(=O)c4ccccc4)CC3)cc2)cc1[N+](=O)[O-] | < 1 | 61.9 |  | 
CN(C)CC[C@H](CSc1ccccc1)Nc1ccc(S(=O)(=O)NC(=O)c2ccc(N3CCN(Cc4ccccc4)CC3)cc2)cc1[N+](=O)[O-] | 2.6 | 39.8 | 350 | 
CCCCCC1(OC)CCN(c2ccc(C(=O)NS(=O)(=O)c3ccc(N[C@H](CCN(C)C)CSc4ccccc4)c([N+](=O)[O-])c3)cc2)CC1 | 1.3 | 20 | 312 | 
